Patent US20230119894A1, “THERAPEUTIC OR PROPHYLACTIC METHOD FOR DIABETES USING COMBINATION MEDICINE” (Japan Tobacco Inc., priority 2019, published 2023)
Several values for one entry are separate records, joined by “and”; a condition that tells them apart may be missing. Equal values may be shown once. Marks after values point to notes of the source that are not given here.

Tests used:
[1] = tested on: Salmonella typhimurium TA98; test: Ames test (reverse mutation test), TA98; details: TA98
Protocol: (§1) Metabolites 1, 3, and 5 and Metabolites C to H were each tested herein. The purpose of this test is to evaluate the potential of each metabolite to induce reverse mutations in the standard strains of Salmonella typhimurium (TA98, TA1537, TA100, and TA1535) and Escherichia coli (WP2uvrA), in either the presence or absence of a rat liver metabolic activation system (S9 mix).
(§2) The solvent used herein was dimethyl sulfoxide (DMSO, 100 μL/plate).
(§3) The test was performed by the pre-incubation method with or without S9 mix. When the test was performed without S9 mix, sodium phosphate buffer solution (pH 7.4) was added.
(§4) 0.5 mL of S9 mix or 0.5 mL of 0.1 mol/L sodium phosphate buffer solution (pH 7.4), and 0.1 mL of the bacterial culture solution were added to a test tube containing 0.1 mL of the negative control formulation (DMSO alone), the metabolite, or the positive control formulation. The mixtures were pre-incubated at 37° C. for 20 minutes while shaking. After the pre-incubation period, 2 mL of top agar were added and the mixtures were vortex-mixed and seeded onto plates. Two plates per treatment were used. Each plate was incubated at 37±1° C. for 48 hours or more and the revertant colonies were counted. The mean number of revertant colonies for each treatment plate was then calculated. […] Evaluation was based on mean values with no statistical comparisons being used.

[2] = tested on: Salmonella typhimurium TA1537; test: Ames test (reverse mutation test), TA1537; details: TA1537
Protocol: as §1, §2, §3, §4

[3] = tested on: Salmonella typhimurium TA1535; test: Ames test (reverse mutation test), TA1535
Protocol: as §1, §2, §3, §4

[4] = tested on: Salmonella typhimurium TA100; test: Ames test (reverse mutation test), TA100; details: TA100
Protocol: as §1, §2, §3, §4

Escherichia coli WP2uvrA = test: Ames test (reverse mutation test), WP2uvrA; format: cell-based; details: WP2uvrA

For `Nc1ccc2cc3ccccc3cc2c1` [Example 2AA, 2-Aminoanthracene, reference compound], the “Number of revertant colonies” value ([1]; S9 mix +, 0.5 μg/plate (positive control)) was 289, the “Number of revertant colonies” value ([2]; S9 mix +, 2 μg/plate (positive control)) was 135 and the “Number of revertant colonies” value ([3]; S9 mix +, 2.0 μg/plate (positive control)) was 223 and 146 and 250.

With `Cl.Nc1c2ccccc2nc2ccccc12.O` [Example 9AA, 9-Aminoacridine hydrochloride monohydrate, reference compound] the “Number of revertant colonies” value ([2]; S9 mix −, 80 μg/plate (positive control)) was 372.

In the case of `CC(C)(C)Oc1cc(F)cc(-c2cc(N)nn2C(F)(F)F)c1` [Metabolite 1], the “Number of revertant colonies” value ([1]; S9 mix +, 185 μg/plate) is reported as 16*, the “Number of revertant colonies” value ([1]; S9 mix +, 556 μg/plate) is reported as 15* and the “Number of revertant colonies” value ([1]; S9 mix +, 1667 μg/plate) is reported as 13*. The “Number of revertant colonies” value ([1]; S9 mix +, 5000 μg/plate) was 13*, the “Number of revertant colonies” value ([1]; S9 mix −, 185 μg/plate) was 9* and the “Number of revertant colonies” value ([1]; S9 mix −, 556 μg/plate) was 0*. For the same compound, the “Number of revertant colonies” value ([1]; S9 mix −, 1667 μg/plate) was 0*, the “Number of revertant colonies” value ([1]; S9 mix −, 5000 μg/plate) was 0* and the “Number of revertant colonies” value ([2]; S9 mix +, 185 μg/plate) was 2*. For the same compound, the “Number of revertant colonies” value ([2]; S9 mix +, 556 μg/plate) was 0*, the “Number of revertant colonies” value ([2]; S9 mix +, 1667 μg/plate) was 0* and the “Number of revertant colonies” value ([2]; S9 mix +, 5000 μg/plate) was 0*. The “Number of revertant colonies” value ([2]; S9 mix −, 185 μg/plate) was 0*, the “Number of revertant colonies” value ([2]; S9 mix −, 556 μg/plate) was 0* and the “Number of revertant colonies” value ([2]; S9 mix −, 1667 μg/plate) was 0*. The “Number of revertant colonies” value ([2]; S9 mix −, 5000 μg/plate) was 0*, the “Number of revertant colonies” value ([4]; S9 mix +, 185 μg/plate) was 78* and the “Number of revertant colonies” value ([4]; S9 mix +, 556 μg/plate) was 59*. For the same compound, the “Number of revertant colonies” value ([4]; S9 mix +, 1667 μg/plate) was 50*, the “Number of revertant colonies” value ([4]; S9 mix +, 5000 μg/plate) was 52* and the “Number of revertant colonies” value ([4]; S9 mix −, 185 μg/plate) was 38*. For the same compound, the “Number of revertant colonies” value ([4]; S9 mix −, 556 μg/plate) was 0*, the “Number of revertant colonies” value ([4]; S9 mix −, 1667 μg/plate) was 0* and the “Number of revertant colonies” value ([4]; S9 mix −, 5000 μg/plate) was 0*. The “Number of revertant colonies” value ([3]; S9 mix +, 185 μg/plate) was 5*, the “Number of revertant colonies” value ([3]; S9 mix +, 556 μg/plate) was 4* and the “Number of revertant colonies” value ([3]; S9 mix +, 1667 μg/plate) was 4*. For the same compound, the “Number of revertant colonies” value ([3]; S9 mix +, 5000 μg/plate) was 2*, the “Number of revertant colonies” value ([3]; S9 mix −, 185 μg/plate) was 0* and the “Number of revertant colonies” value ([3]; S9 mix −, 556 μg/plate) was 0*. For the same compound, the “Number of revertant colonies” value ([3]; S9 mix −, 1667 μg/plate) was 0*, the “Number of revertant colonies” value ([3]; S9 mix −, 5000 μg/plate) was 0* and the “Number of revertant colonies” value (Escherichia coli WP2uvrA; S9 mix +, 185 μg/plate) was 16*. For the same compound, the “Number of revertant colonies” value (Escherichia coli WP2uvrA; S9 mix +, 556 μg/plate) was 18*, the “Number of revertant colonies” value (Escherichia coli WP2uvrA; S9 mix +, 1667 μg/plate) was 9* and the “Number of revertant colonies” value (Escherichia coli WP2uvrA; S9 mix +, 5000 μg/plate) was 0*. The “Number of revertant colonies” value (Escherichia coli WP2uvrA; S9 mix −, 185 μg/plate) was 15*, the “Number of revertant colonies” value (Escherichia coli WP2uvrA; S9 mix −, 556 μg/plate) was 8* and the “Number of revertant colonies” value (Escherichia coli WP2uvrA; S9 mix −, 1667 μg/plate) was 5*. The “Number of revertant colonies” value (Escherichia coli WP2uvrA; S9 mix −, 5000 μg/plate) was 0*.
